Test results: patent US6355640B1, “Pyrazolopyridine adenosine antagonists” (Fujisawa Pharmaceutical Co., Ltd., priority 1993, dated 2002)

melting point | SMILES
197 to 198 °C | C[C@@]1(O)CCCC[C@H]1n1nc(-c2c(-c3ccccc3)nn3ccccc23)ccc1=O (relative stereo) [Example 35, 3-[2-{(1R*,2R*)-2-hydroxy-2-methylcyclohexyl}-3-oxo-2,3-dihydropyridazin-6-yl]-2-phenylpyrazolo[1,5-a]-pyridine]
208 °C (dec.) | O=C(O)CON=C1CCCCC1n1nc(-c2c(-c3ccccc3)nn3ccccc23)ccc1=O (centres unmarked) [Example 57, 3-[2-(2-Carboxymethoxyiminocyclohexyl)-3-oxo-2,3-dihydropyridazin-6-yl]-2-phenylpyrazolo[1,5-a]pyridine]
164 to 165 °C | COC(=O)[C@@H]1CC[C@H](n2nc(-c3c(-c4ccccc4)nn4ccccc34)ccc2=O)C(=O)C1 (relative stereo) [Example 10, cis-3-[2-(4-Methoxycarbonyl-2-oxocyclohexyl)-3-oxo-2,3-dihydropyridazin-6-yl]-2-phenylpyrazolo[1,5-a]pyridine]
156 to 157 °C | COC(=O)/C=C1\CCCCC1n1nc(-c2c(-c3ccccc3)nn3ccccc23)ccc1=O (centres unmarked) [Example 31, (E)-3-[2-(2-methoxycarbonylmethylenecyclohexyl)-3-oxo-2,3-dihydropyridazin-6-yl]-2-phenylpyrazolo[1,5-a]pyridine]
238 to 240 °C | O=C(O)C[C@@H]1CCCC[C@H]1n1nc(-c2c(-c3ccccc3)nn3ccccc23)ccc1=O (relative stereo) [Example 39, trans-3-[2-(2-Carboxymethylcyclohexyl)-3-oxo-2,3-dihydropyridazin-6-yl]-2-phenylpyrazolo[1,5-a]pyridine]
174 to 175 °C | N#C/C=C1\CCCCC1n1nc(-c2c(-c3ccccc3)nn3ccccc23)ccc1=O (stereo not drawn) [Example 96 (E)-isomer, (E)-3-[2-{2-Cyanomethylenecyclohexyl}-3-oxo-2,3-dihydropyridazin-6-yl]-2-phenylpyrazolo[1,5-a]pyridine]
229 to 230 °C | O=c1ccc(-c2c(-c3ccccc3)nn3ccccc23)nn1[C@@H]1CCCC[C@H]1O (relative stereo) [Example 5, trans-3-[2-(2-hydroxycyclohexyl)-3-oxo-2,3-dihydropyridazin-6-yl]-2-phenylpyrazolo[1,5-a]-pyridine]
140 to 145 °C (dec.) | O=C1NCCCC1n1nc(-c2c(-c3ccccc3)nn3ccccc23)ccc1=O (centres unmarked) [Example 26, 3-[2-(2-Oxopiperidin-3-yl)-3-oxo-2,3-dihydropyridazin-6-yl]-2-phenylpyrazolo[1,5-a]pyridine]
70 to 72 °C | N#C/C=C1/CCCCC1n1nc(-c2c(-c3ccccc3)nn3ccccc23)ccc1=O (stereo not drawn) [Example 96 (Z)-isomer, (Z)-3-[2-{2-Cyanomethylenecyclohexyl}-3-oxo-2,3-dihydropyridazin-6-yl]-2-phenylpyrazolo[1,5-a]pyridine]
164 °C | O=C(O)C1CCCCC1n1nc(-c2c(-c3ccccc3)nn3ccccc23)ccc1=O (centres unmarked) [Example 109, 3-[2-(2-carboxycyclohexyl)-3-oxo-2,3-dihydropyridazin-6-yl]-2-phenylpyrazolo[1,5-a]pyridine]
166 to 168 °C | O=C1CCCCC1n1nc(-c2c(-c3ccccc3)nn3ccccc23)ccc1=O (single isomer, unassigned) [Example 2 (more polar compound), 3-[2-(2-oxocyclohexyl)-3-oxo-2,3-dihydropyridazin-6-yl]-2-phenylpyrazolo[1,5-a]pyridine]
126 to 127 °C | O=C1CCCC(n2nc(-c3c(-c4ccccc4)nn4ccccc34)ccc2=O)C1 (centres unmarked) [Example 102, 3-[2-(3-oxocyclohexyl)-3-oxo-2,3-dihydropyridazin-6-yl]-2-phenylpyrazolo[1,5-a]pyridine]
112 to 114 °C | O=C1CCCCCC1n1nc(-c2c(-c3ccccc3)nn3ccccc23)ccc1=O (centres unmarked) [Example 11, 3-[2-(2-Oxocycloheptyl)-3-oxo-2,3-dihydropyridazin-6-yl]-2-phenylpyrazolo[1,5-a]pyridine]
161 to 162 °C | NN=C1CCCCC1n1nc(-c2c(-c3ccccc3)nn3ccccc23)ccc1=O (centres unmarked) [Example 88, 3-[2-(2-Hydrazonocyclohexyl)-3-oxo-2,3-dihydropyridazin-6-yl]-2-phenylpyrazolo[1,5-a]pyridine]

Second part, the molecule before the results:

SMILES | melting point
CC(C)(C)OC(=O)CC1=CCCCC1n1nc(-c2c(-c3ccccc3)nn3ccccc23)ccc1=O (centres unmarked) [Example 95(2), 3-[2-{2-(tert-Butoxycarbonylmethyl)-2-cyclohexen-1-yl}-3-oxo-2,3-dihydropyridazin-6-yl]-2-phenylpyrazolo-[1,5-a]pyridine] | 145.5 to 147 °C
COC(=O)C[C@H]1CC[C@H](n2nc(-c3c(-c4ccccc4)nn4ccccc34)ccc2=O)C1 (relative stereo) [Example 32, trans-3-[2-(3-Methoxycarbonylmethylcyclopentyl)-3-oxo-2,3-dihydropyridazin-6-yl]-2-phenylpyrazolo[1,5-a]-pyridine] | 105 to 107 °C
O=C1OCCC1n1nc(-c2c(-c3ccccc3)nn3ccccc23)ccc1=O (centres unmarked) [Example 25, 3-[2-(2-Oxo-2,3,4,5-tetrahydrofuran-3-yl)-3-oxo-2,3-dihydropyridazin-6-yl]-2-phenylpyrazolo[1,5-a]pyridine] | 179 to 180 °C
O=C(O)CCC1=C(n2nc(-c3c(-c4ccccc4)nn4ccccc34)ccc2=O)CCCC1 [Example 52, 3-[2-{2-(2-carboxyethyl)-1-cyclohexenyl}-3-oxo-2,3-dihydropyridazin-6-yl]-2-phenylpyrazolo[1,5-a]-pyridine] | 184 to 185 °C
O=C(CC1=C(n2nc(-c3c(-c4ccccc4)nn4ccccc34)ccc2=O)CCCC1)N1CCN(C(c2ccccc2)(c2ccccc2)c2ccccc2)CC1 [Example 82, 3-[2-{2-(4-Triphenylmethylpiperazin-1-ylcarbonyl)methyl-1-cyclohexenyl}-3-oxo-2,3-dihydropyridazin-6-yl]-2-phenylpyrazolo[1,5-a]pyridine] | 249.5 to 250.5 °C
CCOC(=O)C[C@@H]1CCCC[C@H]1n1nc(-c2c(-c3ccccc3)nn3ccccc23)ccc1=O (relative stereo) [Example 33(1), trans-3-[2-(2-Ethoxycarbonylmethylcyclohexyl)-3-oxo-2,3-dihydropyridazin-6-yl]-2-phenylpyrazolo[1,5-a]-pyridine] | 172 to 173 °C
O=C(O)CNC(=O)CC1=C(n2nc(-c3c(-c4ccccc4)nn4ccccc34)ccc2=O)CCCC1 [Example 55, 3-[2-{2-(N-Carboxymethylcarbamoyl)methyl-1-cyclohexenyl}-3-oxo-2,3-dihydropyridazin-6-yl]-2-phenylpyrazolo[1,5-a]pyridine] | 190 to 192 °C
CCCn1c(-n2nc(-c3c(-c4ccccc4)nn4ccccc34)ccc2=O)cc(=O)n(CC(=O)OC)c1=O [Example 29, 3-[2-(2,4-Dioxo-3-methoxycarbonylmethyl-1-propyl-1,2,3,4-tetrahydropyrimidin-6-yl)-3-oxo-2,3-dihydropyridazin-6-yl]-2-phenylpyrazolo[1,5-a]pyridine] | 191 to 195 °C
O=C(CC1=C(n2nc(-c3c(-c4ccccc4)nn4ccccc34)ccc2=O)CCCC1)N1CCCC1 [Example 84, 3-[2-{2-(Pyrrolidin-1-ylcarbonyl)methyl-1-cyclohexenyl}-3-oxo-2,3-dihydropyridazin-6-yl]-2-phenylpyrazolo[1,5-a]pyridine] | 178 to 179 °C
O=C(O)[C@H]1CCC(=O)[C@@H](n2nc(-c3c(-c4ccccc4)nn4ccccc34)ccc2=O)C1 (relative stereo) (hydrate or solvate) [Example 17, cis-3-[2-(5-Carboxy-2-oxocyclohexyl)-3-oxo-2,3-dihydropyridazin-6-yl]-2-phenylpyrazolo[1,5-a]pyridine] | 155 to 165 °C
O=c1ccc(-c2c(-c3ccccc3)nn3ccccc23)nn1C1=C(CCO)CCCC1 [Example 105, 3-[2-{2-(2-hydroxyethyl)-1-cyclohexenyl}-3-oxo-2,3-dihydropyridazin-6-yl]-2-phenylpyrazolo[1,5-a]pyridine] | 198 to 199 °C
CCOC(=O)[C@H]1CCC(=O)[C@@H](n2nc(-c3c(-c4ccccc4)nn4ccccc34)ccc2=O)C1 (relative stereo) [Example 16, cis-3-[2-(5-Ethoxycarbonyl-2-oxocyclohexyl)-3-oxo-2,3-dihydropyridazin-6-yl]-2-phenylpyrazolo[1,5-a]pyridine] | 160 to 162 °C
N#CC1CCCCC1n1nc(-c2c(-c3ccccc3)nn3ccccc23)ccc1=O (centres unmarked) [Example 108, 3-[2-(2-cyanocyclohexyl)-3-oxo-2,3-dihydropyridazin-6-yl]-2-phenylpyrazolo[1,5-a]pyridine] | 214 °C
O=C(O)CN1CCC(n2nc(-c3c(-c4ccccc4)nn4ccccc34)ccc2=O)C1=O (centres unmarked) [Example 42, 3-[2-(1-Carboxymethyl-2-oxo-pyrrolidin-3-yl)-3-oxo-2,3-dihydropyridazin-6-yl]-2-phenylpyrazolo[1,5-a]pyridine] | 250 to 251 °C
NC(=O)CC1=C(n2nc(-c3c(-c4ccccc4)nn4ccccc34)ccc2=O)CCCC1 [Example 69, 3-[2-(2-Carbamoylmethyl-1-cyclohexenyl)-3-oxo-2,3-dihydropyridazin-6-yl]-2-phenylpyrazolo[1,5-a]pyridine] | 204 to 205 °C
O=C(CC1=C(n2nc(-c3c(-c4ccccc4)nn4ccccc34)ccc2=O)CCCC1)N1CCOCC1 [Example 83, 3-[2-(2-Morpholinocarbonylmethyl-1-cyclohexenyl)-3-oxo-2,3-dihydropyridazin-6-yl]-2-phenylpyrazolo[1,5-a]-pyridine] | 202 to 204 °C
CN(C)C(=O)CC1=C(n2nc(-c3c(-c4ccccc4)nn4ccccc34)ccc2=O)CCCC1 [Example 71, 3-[2-{2-(N,N-Dimethylcarbamoyl)methyl-1-cyclohexenyl}-3-oxo-2,3-dihydropyridazin-6-yl]-2-phenylpyrazolo[1,5-a]pyridine] | 80 to 81 °C
COC(=O)[C@H]1CC[C@@H](n2nc(-c3c(-c4ccccc4)nn4ccccc34)ccc2=O)[C@H](O)C1 (relative stereo) [Example 8, 3-[2-{(1R*,2R*,4S*)-2-Hydroxy-4-methoxycarbonyl-cyclohexyl}-3-oxo-2,3-dihydropyridazin-6-yl]-2-phenylpyrazolo[1,5-a]pyridine] | 169 to 172 °C
